Measurements: US9708305B2, “Substituted 1,2,3,4-tetrahydroisoquinoline derivatives for the treatment of hormone-dependent diseases” (UNIVERSITÉ LAVAL, priority 2013, dated 2017)

What was measured:
T-47D cells = assay: T-47D cell proliferation (estrogenicity / cytotoxicity), MTS; format: cell-based; conditions: for estrogenicity / cytotoxicity on T-47D cells / activity at 0.01 µM: 0.01 μM; for estrogenicity / cytotoxicity on T-47D cells: 0.1 μM and 1 μM; for activity at 0.01 µM / activity at 0.1 µM / activity at 1 µM: Homo sapiens, T47D, control cells set to 100%, mean±SD
Experimental: The library of phenolic compounds described above was tested on estrogen-sensitive breast cancer T-47D cells.
In Table 1, cell proliferation of control cells is set to 100%. Results are expressed as mean±SD of one experiment in triplicate.
CellTitter 96® Aqueous One Solution Cell Proliferation Assay was used as an indirect colorimetric measurement of cell proliferation according to the manufacturer's instructions. Briefly, after the treatments, 20 μL of MTS solution was added to each well (100 μL) of the plates and incubated at 37° C. for 2 h (Saos-2) or 4 h (T-47D). The absorbance at 490 nm was then measured with a Thermo max microplate reader (Molecular Devices, Sunnyvale, Calif.). The control (culture media+DMSO) is set to 100% of cell proliferation.
The cells were plated in 96-well plates at a density of 3 000 cells/well and allowed to attach for 48 h. After this pre-incubation, the inhibitors and the reference compounds diluted in fresh culture media were added to the wells and replaced every 2 days for 7 days of treatment.

steroid sulfatase (STS) = biological target: T1, steroid sulfatase (STS) (Homo sapiens, UniProt P08842); assay: Steroid sulfatase (STS) inhibition, [3H]-E1S to [3H]-E1, homogenate of transfected HEK-293 cells; format: biochemical; conditions: for inhibition of STS: homogenates of transfected HEK-293 cells; for IC50: homogenated HEK-293 cells overexpressing STS, [3H]-E1S to [3H]-E1, read-out: STS inhibition IC50
T1 construct: expressed in transfected cells; host or cells: HEK-293 cells stably transfected with STS (G418 selection), obtained from Dr. Van Luu-The; used as freeze-thaw homogenate
T1 sequence (P08842 22-583): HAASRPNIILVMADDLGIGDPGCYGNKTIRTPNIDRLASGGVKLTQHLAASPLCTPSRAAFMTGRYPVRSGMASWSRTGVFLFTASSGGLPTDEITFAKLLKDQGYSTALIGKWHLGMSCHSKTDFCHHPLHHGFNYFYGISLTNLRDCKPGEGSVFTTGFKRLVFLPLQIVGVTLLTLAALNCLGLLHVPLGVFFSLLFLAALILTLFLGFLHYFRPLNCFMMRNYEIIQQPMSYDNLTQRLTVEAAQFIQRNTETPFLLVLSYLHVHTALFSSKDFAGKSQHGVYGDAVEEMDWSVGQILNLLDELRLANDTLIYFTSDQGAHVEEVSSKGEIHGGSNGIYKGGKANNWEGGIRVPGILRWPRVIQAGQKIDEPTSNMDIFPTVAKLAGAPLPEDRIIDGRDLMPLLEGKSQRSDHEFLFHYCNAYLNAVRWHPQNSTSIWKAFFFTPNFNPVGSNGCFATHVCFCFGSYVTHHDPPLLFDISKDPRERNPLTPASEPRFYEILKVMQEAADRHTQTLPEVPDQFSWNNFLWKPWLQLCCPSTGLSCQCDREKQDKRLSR
Experimental: To test STS inhibition, we used homogenated HEK-293 cells overexpressing STS and evaluated the capacity of our compounds to inhibit the conversion of [^3H]-E1S into [^3H]-E1. […] This is outlined in FIG. 5.
An enzymatic assay previously described was used for the inhibition of the transformation of estrone sulfate (E1S) to estrone (E1) by STS.^72 Briefly, the transfected HEK-293 cells were homogenized by repeated (5 times) cycles of freezing (−80° C.) and thawing on ice (4° C.). The homogenates were then incubated for 2 h at 37° C. (shaking water bath) with or without inhibitors (0.01 μM-1 μM) in presence of [^3H]-E1S (9 nM), adjusted to 1 μM with E1S, in a Tris-acetate buffer (pH 7.4) containing 5 mM EDTA and 10% glycerol. After the incubation, 1 mL of xylene was added to each tube and the solutions were then centrifuged at 3000 rpm for 20 min to separate the organic ([^3H]-E1) and aqueous ([^3H]-E1S) phases. Once 500 μL of each phase was added to 10 mL of Biodegradable Counting Scintillant, the radioactivity of samples was recorded using a Wallac 1411 Liquid Scintillation Counter. The percentage of inhibition was determined by comparison with the control (buffer+homogenate+[^3H]-E1S) which was set to 0% of inhibition. IC50 value was obtained using GraphPad Prism 5 (GraphPad Software, La Jolla, Calif.).

Row | inhibition of STS (steroid sulfatase (STS)) | IC50 (steroid sulfatase (STS)) | SMILES | estrogenicity / cytotoxicity on T-47D cells (T-47D cells) | activity at 0.01 µM (T-47D cells) | activity at 0.1 µM (T-47D cells) | activity at 1 µM (T-47D cells)
1 | no significant inhibition |  | O=C(c1ccc(CN(Cc2ccccn2)Cc2ccco2)cc1)N1CCc2ccc(O)cc2C1 [Compound 25, (4-{[(furan-2-ylmethyl)(pyridin-2-ylmethyl)amino]methyl}phenyl)(7-hydroxy-3,4-dihydroisoquinolin-2(1H)-yl)methanone] | neither estrogenicity nor cytotoxicity | 104 ± 2.3% | 103 ± 2.5% | 104 ± 6.5%
2 | no significant inhibition |  | COc1ccc(CN(Cc2ccc(C(=O)N3CCc4ccc(O)cc4C3)cc2)Cc2ccccn2)cc1 [Compound 31, (7-hydroxy-3,4-dihydroisoquinolin-2(1H)-yl)(4-{[(4-methoxybenzyl)(pyridin-2-ylmethyl)amino]methyl}phenyl)methanone] | neither estrogenicity nor cytotoxicity | 105.6 ± 0.6% | 105 ± 7.4% | 101 ± 7.9%
3 |  | 16.6 nM | NS(=O)(=O)Oc1ccc2c(c1)CN(C(=O)c1ccc(CN(Cc3ccccn3)Cc3ccco3)cc1)CC2 [Compound 32, 2-[(4-{[(furan-2-ylmethyl)(pyridin-2-ylmethyl)amino]methyl}phenyl)carbonyl]-1,2,3,4-tetrahydroisoquinolin-7-yl sulfamate] |  |  |  | 
4 |  | 3.9 nM | COc1ccc(CN(Cc2ccc(C(=O)N3CCc4ccc(OS(N)(=O)=O)cc4C3)cc2)Cc2ccccn2)cc1 [Compound 34, 2-[(4-{[(4-methoxybenzyl)(pyridin-2-ylmethyl)amino]methyl}phenyl)carbonyl]-1,2,3,4-tetrahydroisoquinolin-7-yl sulfamate] |  |  |  | 
